The values below come from US8633251B2, “Derivatives of aminoalkanols, method of obtaining of aminoalkanols and their use” (Uniwersytet Jagiellonski, priority 2008, dated 2014).

Counter-ions that a name gives are not always drawn. Like-named read-outs stand apart in the source and are kept apart here.

Data set [1] deals with maximal electroshock seizures. As to the kind of experiment: Maximum Electroshock Seizure (MES) test, mice. Format: in vivo. Here is the method:
(§1) In order to define anticonvulsant activity, screening tests were performed, using animal models of seizures. […] Each substance (after dissolving in methylcellulose) was normally tested in doses 30, 100, and 300 mg/kg body weight (b.w.) (mice) or in 30 and 50 mg/kg b.w. (rats) in two possible routes of administration: intraperitoneal (i.p.) or oral (p.o.). Appropriate tests were performed 0.5 and 4 h after administration of the compound. […] (mice) the tests were also performed in doses 10 and 3 mg/kg b.w.
Maximum Electroshock Seizure (MES) test is an electric test, verifying activity towards generalized tonic-clonic seizures (grand mal epilepsy). […] Its procedure consists in administration to an animal a mentioned dose, and after 0.5 or 4 h attaching corneal electrodes (after anesthetic eye-drops: 0.5% tetracaine hydrochloride in 0.9% NaCl) and turning on electric current (60 Hz, 0.2 s, 50 mA (mice) or 150 mA (rats)). […] Normally, in the dose 30 mg/kg b.w. the test is done in 1 mouse after 0.5 or 4 h, in the dose 100 mg/kg b.w.—in 3 mice, and in the dose 300 mg/kg b.w.—in 1 mouse.

The test system of the next data set is neurotoxicity (rotarod). As to the kind of experiment: Neurotoxicity test (TOX), rotarod, mice. Format: in vivo. Here is the method: as §1
It is performed with use of rotarod test. The animal is placed on a plastic rod (1 inch in diameter), rotating 6 rpm. The rod is placed on a level discouraging the animal to jump off. […] Neurotoxicity is stated if the animal cannot stay on the rod for 1 min. in any of 3 trials. Normally the test is performed in dose 30 mg/kg b.w. in 4 mice (0.5 h) and in 2 mice (4 h), in the dose 100 mg/kg b.w. in 8 mice (0.5 h) and in 4 mice (4 h) and in the dose 300 mg/kg b.w. in 4 mice (0.5 h) and 2 mice (4 h).
Background: The rotarod test checks motor coordination on a turning rod.

The mark [2] stands for this setting: mice, dose 300 mg/kg b.w., 0.5 h.
Setting [3] is: mice, dose 100 mg/kg b.w., 0.5 h.
The mark [4] stands for this setting: mice, dose 30 mg/kg b.w., 0.5 h.
Where [5] appears, read: Mus musculus, 0.5 h, read-out: MES, No. of protected animals/No. of used animals.
The mark [6] stands for this setting: mice, dose 100 mg/kg b.w., time 0.5 h.
The mark [7] stands for this setting: mice, dose 300 mg/kg b.w., time 0.5 h.
Setting [8] is: mice, dose 30 mg/kg b.w., time 0.5 h.
The mark [9] stands for this setting: mice, dose 100 mg/kg b.w., time 4 h.
Where [10] appears, read: mice, dose 10 mg/kg b.w., time 0.5 h.

Regarding `Cc1cccc(Cl)c1OCC(=O)N[C@H](C)CO` [Compound 70, R-(−)-2N-[(2-chlor-6-methylphenoxy)acetyl]amino-1-propanol], the “MES, No. of protected animals/No. of used animals” value in data set [1] (setting [2]) was 1/1. Moreover, the “TOX, No. of animals exhibiting motor impairment/no. of used animals” value in the data set on neurotoxicity (rotarod) (setting [2]) was 3/4.
On to `Cc1cccc(C)c1OCCCNCC(O)c1ccccc1` (racemic) [Compound 56, R,S-2N-[(2,6-dimethylphenoxy)propyl]amino-1-phenylethanol], for which the “MES, No. of protected animals/No. of used animals” value in data set [1] (setting [3]) is reported as 1/1. In addition, the “TOX, No. of animals exhibiting motor impairment/no. of used animals” value in the data set with neurotoxicity (rotarod) (setting [4]) is given as 2/4; in the data set on neurotoxicity (rotarod) (setting [3]), 8/8; in the data set on neurotoxicity (rotarod) (setting [2]), 4/4.
On to `Cc1cccc(C)c1OCC(=O)N[C@@H](C)CO` [Compound 62, S-(−)-2N-[(2,6-dimethylphenoxy)acetyl]amino-1-propanol], for which the “MES, No. of protected animals/No. of used animals” value is 1/1 in data set [1] (setting [2]) and 1/1 in data set [1] (mice, dose 300 mg/kg b.w., 4 h). Moreover, the “TOX, No. of animals exhibiting motor impairment/no. of used animals” value in the data set on neurotoxicity (rotarod) (setting [4]) is 1/4; in the data set with neurotoxicity (rotarod) (setting [3]), 3/8; with neurotoxicity (rotarod) (mice, dose 100 mg/kg b.w., 4 h), 1/4; in the data set on neurotoxicity (rotarod) (setting [2]), 3/4; in the data set on neurotoxicity (rotarod) (mice, dose 300 mg/kg b.w., 4 h), 1/2.
In the case of `Cc1cccc(C)c1OCCN[C@H](CO)C(C)C` [Compound 16, L-2N-[(2,6-dimethylphenoxy)ethyl]amino-3-methyl-1-butanol hydrochloride], the responders at 100 mg/kg in data set [1] (setting [5]) was 100%. Also, the “TOX, No. of animals exhibiting motor impairment/no. of used animals” value with neurotoxicity (rotarod) (setting [6]) is on record as 7/8; in the data set on neurotoxicity (rotarod) (setting [7]), 4/4.
For `Cc1cccc(Cl)c1OCCNC(C)CO` (stereo not drawn) [Compound 24, R,S-2N-[(2-chlor-6-methylphenoxy)ethyl]amino-1-propanol], the “MES, No. of protected animals/No. of used animals” value in data set [1] (setting [6]) was 3/3. The “TOX, No. of animals exhibiting motor impairment/no. of used animals” value in the data set on neurotoxicity (rotarod) (setting [6]) is 5/8; with neurotoxicity (rotarod) (setting [7]), 4/4.
For “R,S-1N-[(4-chlor-2-methylphenoxy)ethyl]amino-2-propanol [Compound 32]”, the “MES, No. of protected animals/No. of used animals” value in data set [1] (setting [8]) is reported as 1/1; in data set [1] (setting [6]), 3/3; in data set [1] (setting [9]), 1/3; in data set [1] (setting [7]), 1/1. Also, the “TOX, No. of animals exhibiting motor impairment/no. of used animals” value with neurotoxicity (rotarod) (setting [6]) is on record as 7/8; with neurotoxicity (rotarod) (setting [7]), 4/4; in the data set on neurotoxicity (rotarod) (mice, dose 300 mg/kg b.w., time 4 h) it was 1/1.
Turning to `Cc1cccc(C)c1OCCCN[C@H](C)CO` [Compound 52, R-(−)-2N-[(2,6-dimethylphenoxy)propyl]amino-1-propanol hydrochloride], the responders at 30 mg/kg in data set [1] (setting [5]) was determined as 100%. Moreover, the responders at 100 mg/kg in data set [1] (setting [5]) was 66.7%. Further, in data set [1] (Mus musculus, 4 h, read-out: MES, No. of protected animals/No. of used animals), the responders at 300 mg/kg is 100%. Moreover, the “TOX, No. of animals exhibiting motor impairment/no. of used animals” value is reported as 1/4 with neurotoxicity (rotarod) (mice, dose 10 mg/kg b.w., 0.5 h); 6/8 with neurotoxicity (rotarod) (setting [3]); 1/4 in the data set with neurotoxicity (rotarod) (mice, dose 100 mg/kg b.w., 4 h); 3/4 in the data set with neurotoxicity (rotarod) (setting [2]).
With `CCC(O)CNC(=O)COc1c(C)cccc1C` (stereo not drawn) [Compound 63, R,S-1N-[(2,6-dimethylphenoxy)acetyl]amino-2-butanol], in data set [1] (setting [2]), the “MES, No. of protected animals/No. of used animals” value was 1/1. The “TOX, No. of animals exhibiting motor impairment/no. of used animals” value with neurotoxicity (rotarod) (setting [2]) is 4/4.
For the compound `Cc1cccc(Cl)c1OCCNCC(O)c1ccccc1` (stereo not drawn) [Compound 31, R,S-2N-[(2-chlor-6-methylphenoxy)ethyl]amino-1-phenylethanol], the results for the “MES, No. of protected animals/No. of used animals” value in data set [1] (setting [8]), in data set [1] (setting [6]) and in data set [1] (setting [7]) were 1/1, 3/3 and 1/1, respectively. In addition, the “TOX, No. of animals exhibiting motor impairment/no. of used animals” value is 8/8 in the data set on neurotoxicity (rotarod) (setting [6]) and 4/4 in the data set with neurotoxicity (rotarod) (setting [7]).
Consider `Cc1cccc(C)c1OCCN(C)CC(O)c1ccccc1.Cl` (racemic) [Compound 22, R,S-2N-[(2,6-dimethylphenoxy)ethyl]-2N-methylamino-1-phenylethanol hydrochloride], for which the “MES, No. of protected animals/No. of used animals” value in data set [1] (setting [6]) and in data set [1] (setting [9]) was 2/2 throughout. Also, the entries for the “TOX, No. of animals exhibiting motor impairment/no. of used animals” value in the data set with neurotoxicity (rotarod) (setting [6]) and in the data set on neurotoxicity (rotarod) (setting [7]) were 8/8 and 4/4, respectively.
On to `CCC(CO)NCCOc1cccc(C)c1C` (stereo not drawn) [Compound 2, R,S-2N-[(2,3-dimethylphenoxy)ethyl]amino-1-butanol], for which the “MES, No. of protected animals/No. of used animals” value in data set [1] (setting [6]) was 3/3. Moreover, the “TOX, No. of animals exhibiting motor impairment/no. of used animals” value with neurotoxicity (rotarod) (mouse, in vivo, 100 mg/kg) was 8/8; with neurotoxicity (rotarod) (mouse, in vivo, 300 mg/kg) it was 4/4.
Consider `Cc1ccc(C)c(OCCNC(C)CO)c1` (stereo not drawn) [Compound 6, R,S-2N-[(2,5-dimethylphenoxy)ethyl]amino-1-propanol], for which the figures for the “MES, No. of protected animals/No. of used animals” value in data set [1] (setting [6]) and in data set [1] (setting [7]) were 3/3 and 1/1, respectively. In addition, in the data set on neurotoxicity (rotarod) (mouse, in vivo, 300 mg/kg), the “TOX, No. of animals exhibiting motor impairment/no. of used animals” value is 4/4.
Turning to `CCC(O)CNCCOc1ccc(Cl)cc1C` (stereo not drawn) [Compound 34, R,S-1N-[(4-chlor-2-methylphenoxy)ethyl]amino-2-butanol], the “MES, No. of protected animals/No. of used animals” value in data set [1] (setting [6]) is 3/3. Further, the “TOX, No. of animals exhibiting motor impairment/no. of used animals” value in the data set on neurotoxicity (rotarod) (setting [8]) is given as 1/4; in the data set on neurotoxicity (rotarod) (setting [6]), 7/8; with neurotoxicity (rotarod) (setting [7]), 4/4.
For the compound “R,S-1N-[(2-chlor-6-methylphenoxy)ethyl]amino-2-propanol [Compound 23]”, the “MES, No. of protected animals/No. of used animals” value in data set [1] (setting [8]) and in data set [1] (setting [6]) was 1/1 throughout. The “TOX, No. of animals exhibiting motor impairment/no. of used animals” value in the data set on neurotoxicity (rotarod) (setting [6]) is on record as 7/8; in the data set on neurotoxicity (rotarod) (setting [7]), 4/4.
Turning to `Cc1cccc(Cl)c1OCC(=O)N[C@@H](C)CO` [Compound 71, S-(+)-2N-[(2-chlor-6-methylphenoxy)acetyl]amino-1-propanol], the “MES, No. of protected animals/No. of used animals” value in data set [1] (setting [2]) is listed as 1/1. In addition, in the data set with neurotoxicity (rotarod) (setting [2]), the “TOX, No. of animals exhibiting motor impairment/no. of used animals” value is on record as 4/4.
On to `Cc1cc(C)c(OCCN[C@@H]2CCCC[C@H]2O)c(C)c1` (relative stereo) [Compound 44, D,L-trans-2N-[(2,4,6-trimethylphenoxy)ethyl]amino-1-cyclohexanol], for which the “MES, No. of protected animals/No. of used animals” value in data set [1] (setting [10]) was 1/4; in data set [1] (setting [8]) it was 1/1. For the same compound, the “TOX, No. of animals exhibiting motor impairment/no. of used animals” value is listed as 1/4 with neurotoxicity (rotarod) (setting [10]) and 8/8 in the data set with neurotoxicity (rotarod) (setting [6]).
Regarding `CCC(CO)NCCCOc1c(C)cccc1Cl.Cl` (racemic) [Compound 58, R,S-2N-[(2-chlor-6-methylphenoxy)propyl]amino-1-butanol hydrochloride], the “MES, No. of protected animals/No. of used animals” value in data set [1] (setting [3]) was 2/3. The “TOX, No. of animals exhibiting motor impairment/no. of used animals” value in the data set on neurotoxicity (rotarod) (setting [3]) was 6/8; in the data set with neurotoxicity (rotarod) (setting [2]), 4/4; in the data set on neurotoxicity (rotarod) (mice, dose 300 mg/kg b.w., 4 h) it was 1/1.
As for `CC[C@H](CO)NCCOc1cc(C)cc(C)c1C` [Compound 40, R-(−)-2N-[(2,3,5-trimethylphenoxy)ethyl]amino-1-butanol], the responders at 30 mg/kg in data set [1] (Mus musculus, mice, dose 30 mg/kg b.w., time 0.5 h, read-out: MES, No. of protected animals/No. of used animals) was 100%. The responders at 100 mg/kg was 66.7% in data set [1] (Mus musculus, mice, dose 100 mg/kg b.w., time 0.5 h, read-out: MES, No. of protected animals/No. of used animals (converted)) and 33.3% in data set [1] (Mus musculus, mice, dose 100 mg/kg b.w., time 4 h, read-out: MES, No. of protected animals/No. of used animals (converted)). Also, the “TOX, No. of animals exhibiting motor impairment/no. of used animals” value in the data set with neurotoxicity (rotarod) (setting [6]) is reported as 4/8; in the data set with neurotoxicity (rotarod) (setting [7]) it was 4/4.
As to `Cc1cccc(C)c1OCCN(C)C(C)CO.Cl` (racemic) [Compound 14, R,S-2N-[(2,6-dimethylphenoxy)ethyl]-2N-methylamino-1-propanol hydrochloride], the “MES, No. of protected animals/No. of used animals” value in data set [1] (setting [8]) and in data set [1] (setting [6]) was 1/1 each time. Further, the “TOX, No. of animals exhibiting motor impairment/no. of used animals” value is 1/4 in the data set with neurotoxicity (rotarod) (mouse, in vivo, 30 mg/kg); 8/8 with neurotoxicity (rotarod) (mouse, in vivo, 100 mg/kg); 4/4 in the data set on neurotoxicity (rotarod) (mouse, in vivo, 300 mg/kg).
